This is an account of results in patent publication US20020127186A1, “Use of electrolytes (lons in solution) to suppress charging of inhalation aerosols” (priority 2000, published 2002).

Series [1] is described as follows: Net aerosol electric charge of AERx aerosols, measured with a Faraday cup. The class given is physicochemical. On the procedure: The AERx™ system (as described and disclosed in U.S. Pat. Nos. 5,544,646 and 6,123,068) produces aerosols by extruding the liquid contents of a single dose blister packet (here 45 uL) through an array of micro-drilled holes. The jets formed during the extrusion process are entrained by the patient inhalation air flow. (Schuster J et al., In Drug Delivery to the Lungs VIII, pp14-17, 1997; Schuster J et al., In Respiratory Drug Delivery VI, pp. 83-90, 1998).
For the measurements of electric charge, the air flow was simulated with pressurized house air. A Faraday cup was inserted in the flow path of the aerosol a few centimeters downstream from the point of generation. It comprised a perforated aluminum cartridge filled with a paper filter, which was inserted into and insulated from a grounded metal enclosure, used as a shield from external electromagnetic noise. A coaxial wire connected to the aluminum cartridge was passed through the metal enclosure and connected to a current-voltage converter of the op-amp design (ammeter). The voltage output from the ammeter was acquired as a function of time by a computer together with other information about the extrusion process, such as the position of the piston that pressurizes the blister pack during an extrusion.
The formulations tested in EXAMPLES 1, 2 and 3 were de-ionized water (DI), sterile water for injection USP (WFI), 5 mM and 10 mM sodium chloride in water, and 30 mg/ml sodium cromoglycate (cromolyn) in water.
The region between aerosol generation and the Faraday cup was inspected after each extrusion (“run”), and any residue found was wiped clean. This region was all metallic in the system used here and comprised two separable parts, the so-called “clamp”, in which the packet is held and the aerosol is generated, and the so-called “diffuser”, which is positioned immediately downstream from the clamp. This diffuser was removed in some of the Examples herein discussed.
A measure of the net electric charge carried by the bolus was obtained from the numerical integral over time of the electric current signals. […]

Series [2] is described as follows: Residue between aerosol generation and Faraday cup, inspected after each extrusion. The class given is physicochemical. The note with it: EXAMPLE 1, diffuser on; 30 mg/ml in water; compared with DI water. An excerpt: The region between aerosol generation and the Faraday cup was inspected after each extrusion (“run”), and any residue found was wiped clean. This region was all metallic in the system used here and comprised two separable parts, the so-called “clamp”, in which the packet is held and the aerosol is generated, and the so-called “diffuser”, which is positioned immediately downstream from the clamp. This diffuser was removed in some of the Examples herein discussed. […] Several runs carried out with a “dummy” packet that contained no liquid (labeled “no article” by the “X” in FIG. 1) gave rise to no measurable levels of charge. […] The difference in residue is another indication of high charging.

Where [3] appears, read: EXAMPLE 2, diffuser not present, solutions in water (5 and 10 mM NaCl; 30 mg/ml cromolyn), compared with WFI, FIG. 2.

The structures appear in SMILES notation.

As for `[Cl-].[Na+]` [NaCl, sodium chloride], the net aerosol charge result in series [1] (setting [3]) was “much lower charge than water for injection”.

Consider `O=C(O)c1cc(=O)c2c(OCC(O)COc3cccc4oc(C(=O)O)cc(=O)c34)cccc2o1` [cromolyn, sodium cromoglycate], for which, in series [2], the “residue in the diffuser” value was “a small fraction of the initial packet contents”. The net aerosol charge entry in series [1] (EXAMPLE 1, diffuser on, 30 mg/ml in water, compared with DI water, FIG. 1) is on record as “significantly reduced charge level”; in series [1] (setting [3]), “much lower charge than water for injection”.
